Legend:
Type in all cases: biochemical
Caspase-3 = biological target: T1, Caspase-3 (Homo sapiens, UniProt P42574); test: Kinetic compound screening, progress curve method, caspase-3; conditions: for Caspase-3 Ki(app): Table IV; for Ki(app) Caspase-3: Table III, Ki(app) = Kass or Kobs/I, 5 nM active caspase-3
T1 sequence (P42574 29-175 limits assumed): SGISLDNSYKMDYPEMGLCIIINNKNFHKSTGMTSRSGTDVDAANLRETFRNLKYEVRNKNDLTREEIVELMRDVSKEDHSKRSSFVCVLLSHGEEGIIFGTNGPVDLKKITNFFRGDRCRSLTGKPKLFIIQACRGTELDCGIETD
T1 sequence (P42574 176-277 limits assumed): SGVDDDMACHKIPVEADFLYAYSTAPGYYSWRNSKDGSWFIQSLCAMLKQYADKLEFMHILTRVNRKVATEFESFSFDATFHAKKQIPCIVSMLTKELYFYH
Source text: (§1) Table III below presents Ki(app) values for select AB compounds. Ki(app) values (also called Kass or Kobs/I) represent the speed of inhibitor binding to a target enzyme. Units are [M^−1s^−1]. NI indicates no inhibition at concentrations tested. Parent compounds AB09, ABo8, and AB07 that include the optimal substrate specificity sequences for caspases-3, […] as determined by Thornberry and colleagues (Thornberry et al., 19970 are included between double lines.
(§2) The inhibitors AB07 (NP-LEHD-AOMK, caspase-9), AB08 (NP-LETD-AOMK, caspase-8), and AB09 (NP-DEVD-AOMK, caspase-3) were synthesized and kinetic inhibition constants (Kiapp) were obtained for all compounds for caspases 3, 7, 8 and 9 using the progress curve method for pseudo-first order reactions kinetics (Salvesen, 1989) (structures shown in Table I). […] Ki(app) values (also called Kass or Kobs/I) represent the speed of inhibitor binding to a target enzyme. Units are [M-1s-1]. NI indicates no inhibition at concentrations tested, ND indicates data not determined, SD indicates standard deviation.
(§3) Compound screening was completed using the progress curve method as described (Salvesen, 1989). All screening was carried out in caspase reaction buffer. The caspase-9 specific compounds AB38, 40, 41 and 42 were screened in caspase reaction buffer and in caspase buffer with 1M sodium citrate instead of sucrose as described (Pop, 2006) The concentrations of active caspases used is as follows: 5 nM active caspase-3, 5 nM active caspase-7, 10 nM active caspase-8, and 50 nM active caspase-9. To ensure full activation, caspases 3/7, 8 and 9 were preincubated at 37° C. for 5, 10, or 40 minutes respectively before kinetic measurements were made.

Caspase-8 = Caspase-8 (Homo sapiens, UniProt Q14790); test: Kinetic compound screening, progress curve method, caspase-8; conditions: for Ki(app) Caspase-8: Table III, Ki(app) = Kass or Kobs/I, 10 nM active caspase-8; for Caspase-8 Ki (app): Table IV, NI = no inhibition at concentrations tested
Sequence of Caspase-8 (Q14790 217-479): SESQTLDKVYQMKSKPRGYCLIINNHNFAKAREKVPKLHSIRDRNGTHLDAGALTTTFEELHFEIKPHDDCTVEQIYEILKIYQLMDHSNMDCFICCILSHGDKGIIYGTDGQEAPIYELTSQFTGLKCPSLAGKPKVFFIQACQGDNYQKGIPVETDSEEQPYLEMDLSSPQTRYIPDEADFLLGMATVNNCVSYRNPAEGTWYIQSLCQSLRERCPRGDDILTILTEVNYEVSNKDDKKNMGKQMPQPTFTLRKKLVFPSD
Source text: as §1, §2, §3

Caspase-9 = biological target: T2, Caspase-9 (Homo sapiens, UniProt P55211); test: Kinetic compound screening, progress curve method, caspase-9; conditions: for Ki(app) Caspase-9: Table III, Ki(app) = Kass or Kobs/I, 50 nM active caspase-9; for Ki(app) Caspase-9 / Caspase-9 Ki (app): NI = no inhibition at concentrations tested; for Caspase-9 Ki (app): Table IV
T2 sequence (P55211 1-416): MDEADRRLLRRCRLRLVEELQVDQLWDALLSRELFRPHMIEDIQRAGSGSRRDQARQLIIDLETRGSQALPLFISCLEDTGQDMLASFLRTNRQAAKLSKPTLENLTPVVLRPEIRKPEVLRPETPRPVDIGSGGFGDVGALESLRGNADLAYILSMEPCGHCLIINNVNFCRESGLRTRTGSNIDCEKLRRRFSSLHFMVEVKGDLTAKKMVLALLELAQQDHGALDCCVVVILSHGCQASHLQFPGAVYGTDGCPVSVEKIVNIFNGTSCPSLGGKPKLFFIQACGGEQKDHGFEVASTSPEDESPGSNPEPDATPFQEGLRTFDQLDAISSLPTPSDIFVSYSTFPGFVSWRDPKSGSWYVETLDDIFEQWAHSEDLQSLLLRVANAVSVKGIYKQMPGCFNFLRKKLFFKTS
Source text: as §1, §2, §3

Caspase-7 = biological target: T3, Caspase-7 (Homo sapiens, UniProt P55210); test: Kinetic compound screening, progress curve method, caspase-7; conditions: for Ki(app) Caspase-7: Table III, Ki(app) = Kass or Kobs/I, 5 nM active caspase-7; for Caspase-7 Ki (app): Table IV
T3 sequence (P55210 1-303): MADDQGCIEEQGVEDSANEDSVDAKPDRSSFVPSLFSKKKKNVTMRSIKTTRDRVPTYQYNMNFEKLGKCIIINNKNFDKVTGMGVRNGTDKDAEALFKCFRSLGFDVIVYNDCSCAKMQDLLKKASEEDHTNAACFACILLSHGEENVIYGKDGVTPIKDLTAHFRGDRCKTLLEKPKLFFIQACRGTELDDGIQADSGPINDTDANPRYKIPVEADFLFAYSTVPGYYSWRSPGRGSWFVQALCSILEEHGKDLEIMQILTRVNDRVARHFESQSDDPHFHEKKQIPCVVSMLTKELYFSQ
Source text: as §1, §2, §3

Row | Ki(app) Caspase-8 (Caspase-8) | Caspase-8 Ki (app) (Caspase-8) | Ki(app) Caspase-3 (Caspase-3) | Ki(app) Caspase-7 (Caspase-7) | Caspase-7 Ki (app) (Caspase-7) | Ki(app) Caspase-9 (Caspase-9) | Caspase-9 Ki (app) (Caspase-9) | Structure (SMILES) | Caspase-3 Ki(app) (Caspase-3) | inhibition of caspase-8, in words (Caspase-8) | activity for caspase-9, in words (Caspase-9)
1 | 126,323 M^−1s^−1 | 126,323 M-1s-1 | 781,733 M^−1s^−1 | 448,155 M^−1s^−1 | 448,155 M-1s-1 | – | – | Cc1cccc(C)c1C(=O)OCC(=O)[C@H](CC(=O)O)NC(=O)[C@@H](NC(=O)C(CCC(=O)O)NC(=O)[C@H](Cc1ccc2ccccc2c1)NC(=O)Cc1ccc(O)c([N+](=O)[O-])c1)C(C)C (stereo partly drawn) [AB17, Np-26-E-V-D-DMBA] | 781,733 M-1s-1 | – | –
2 | 572,012 M^−1s^−1 | 572,012 M-1s-1 | 216,040 M^−1s^−1 | 234,945 M^−1s^−1 | 234,945 M-1s-1 | 12,320 M^−1s^−1 | 12,320 M-1s-1 | Cc1cccc(C)c1C(=O)OCC(=O)[C@H](CC(=O)O)NC(=O)[C@@H](NC(=O)[C@H](CCC(=O)O)NC(=O)[C@H](Cc1ccc(I)cc1)NC(=O)Cc1ccc(O)c([N+](=O)[O-])c1)C(C)O (stereo partly drawn) [AB18, NP-31-E-T-D-DMBA] | 216,040 M-1s-1 | – | –
3 | 1,071,401 M^−1s^−1 | 1,071,401 M-1s-1 | 570,900 M^−1s^−1 | 181,332 M^−1s^−1 | 181,332 M-1s-1 | 41,300 M^−1s^−1 | 41,300 M-1s-1 | Cc1ccc(C[C@H](NC(=O)Cc2ccc(O)c([N+](=O)[O-])c2)C(=O)N[C@@H](CCC(=O)O)C(=O)N[C@H](C(=O)N[C@@H](CC(=O)O)C(=O)COC(=O)c2c(C)cccc2C)C(C)O)cc1 (stereo partly drawn) [AB20, Np-29-E-T-D-DMBA] | 570,900 M-1s-1 | highest kinetic inhibition constants for caspase-8 that we have measured so far | –
4 | 599,788 M^−1s^−1 | 599,788 M-1s-1 | 127,835 M^−1s^−1 | 19,424 M^−1s^−1 | 19,424 M-1s-1 | <5,000 M^−1s^−1 | <5,000 M-1s-1 | Cc1cccc(C)c1C(=O)OCC(=O)[C@H](CC(=O)O)NC(=O)[C@@H](NC(=O)[C@H](CCC(=O)O)NC(=O)[C@H](CC(C)C)NC(=O)Cc1ccc(O)c([N+](=O)[O-])c1)C(C)O (stereo partly drawn) [AB08, Np-L-E- T-D-DMBA] | 127,835 M-1s-1 | – | –
5 | 271,626 M^−1s^−1 | 271,626 M-1s-1 | 5,652,900 M^−1s^−1 | 783,840 M^−1s^−1 | 783,840 M-1s-1 | – | – | Cc1ccc(C[C@H](NC(=O)[C@H](CC(=O)O)NC(=O)Cc2ccc(O)c([N+](=O)[O-])c2)C(=O)N[C@H](C(=O)N[C@@H](CC(=O)O)C(=O)COC(=O)c2c(C)cccc2C)C(C)C)cc1 [AB12, Np-D-E-29-V-D-DMBA] | 5,652,900 M-1s-1 | – | –
6 | 580,547 M^−1s^−1 | 580,547 M-1s-1 | 2,482,333 M^−1s^−1 | 199,341 M^−1s^−1 | 199,341 M-1s-1 | 47,362 M^−1s^−1 | 47,362 M-1s-1 | Cc1cccc(C)c1C(=O)OCC(=O)[C@H](CC(=O)O)NC(=O)C1CCCN1C(=O)[C@@H](CCC(=O)O)NC(=O)[C@H](CC(=O)O)NC(=O)Cc1ccc(O)c([N+](=O)[O-])c1 (stereo partly drawn) [AB11, NP-D-E- P-D-DMBA] | 2,482,333 M-1s-1 | – | –

The next lines start with the compound.

Row | Structure (SMILES) | Ki(app) Caspase-8 (Caspase-8) | Caspase-8 Ki (app) (Caspase-8) | Ki(app) Caspase-3 (Caspase-3) | Ki(app) Caspase-7 (Caspase-7) | Caspase-7 Ki (app) (Caspase-7) | Ki(app) Caspase-9 (Caspase-9) | Caspase-9 Ki (app) (Caspase-9) | Caspase-3 Ki(app) (Caspase-3) | inhibition of caspase-8, in words (Caspase-8) | activity for caspase-9, in words (Caspase-9)
7 | Cc1ccc(C[C@@H](NC(=O)[C@H](CC(=O)O)NC(=O)Cc2ccc(O)c([N+](=O)[O-])c2)C(=O)N[C@H](C(=O)N[C@@H](CC(=O)O)C(=O)COC(=O)c2c(C)cccc2C)C(C)C)cc1 [AB31, Np-D-30-V-D-DMBA] | – | – | – | – | – | – | – | 64,873 M-1s-1 | – | –
8 | Cc1cccc(C)c1C(=O)OCC(=O)[C@H](CC(=O)O)NC(=O)[C@@H](NC(=O)[C@H](CCC(=O)O)NC(=O)[C@H](Cc1ccc(I)cc1)NC(=O)Cc1ccc(O)c([N+](=O)[O-])c1)C1Cc2ccccc2C1 [AB19, NP-31-E-23-D-DMBA] | 396,225 M^−1s^−1 | 396,225 M-1s-1 | 179,086 M^−1s^−1 | 42,994 M^−1s^−1 | 42,994 M-1s-1 | – | – | 179,086 M-1s-1 | retained relatively good potency for caspase-8 | no measurable activity for caspase-9
9 | Cc1cccc(C)c1C(=O)OCC(=O)[C@H](CC(=O)O)NC(=O)[C@H](Cc1cc[nH]c1)NC(=O)[C@H](CCC(=O)O)NC(=O)[C@H](CC(C)C)NC(=O)Cc1ccc(O)c([N+](=O)[O-])c1 [AB07, Np-L-E- H-D-DMBA] | 506,912 M^−1s^−1 | 506,912 M-1s-1 | 75,295 M^−1s^−1 | 10,447 M^−1s^−1 | 10,447 M-1s-1 | 20,141 M^−1s^−1 | 41 M⁻¹ s⁻¹ | 75,295 M-1s-1 | more rapid inhibition of caspase-8 | –
10 | Cc1cccc(C)c1C(=O)OCC(=O)[C@H](CC(=O)O)NC(=O)[C@@H](NC(=O)[C@@H](NC(=O)[C@H](CC(=O)O)NC(=O)Cc1ccc(O)c([N+](=O)[O-])c1)c1ccccc1)C(C)C [AB13, Np-D-E-34-V-D-DMBA] | <5,000 M^−1s^−1 | <5,000 M-1s-1 | 3,416,050 M^−1s^−1 | 279,519 M^−1s^−1 | 279,519 M-1s-1 | – | – | 3,416,050 M-1s-1 | – | –
11 | Cc1cccc(C)c1C(=O)OCC(=O)[C@H](CC(=O)O)NC(=O)C1(NC(=O)[C@H](CCC(=O)O)NC(=O)[C@H](CC(=O)O)NC(=O)Cc2ccc(O)c([N+](=O)[O-])c2)CC1 [AB29, Np-D-E-11-D-DMBA] | – | 90,503 M-1s-1 | – | – | – | – | – | 341,429 M-1s-1 | – | –
12 | Cc1cccc(C)c1C(=O)OCC(=O)[C@H](CC(=O)O)NC(=O)[C@@H](NC(=O)[C@H](Cc1ccccn1)NC(=O)[C@H](Cc1ccc2ccccc2c1)NC(=O)Cc1ccc(O)c([N+](=O)[O-])c1)C(C)C [AB16, Np-26-3-V-D-DMBA] | 121,650 M^−1s^−1 | 121,650 M-1s-1 | 484,495 M^−1s^−1 | 24,185 M^−1s^−1 | 24,185 M-1s-1 | – | – | 484,495 M-1s-1 | – | –
13 | Cc1cccc(C)c1C(=O)OCC(=O)[C@H](CC(=O)O)NC(=O)[C@@H](NC(=O)[C@@H](NC(=O)[C@H](Cc1ccc2ccccc2c1)NC(=O)Cc1ccc(O)c([N+](=O)[O-])c1)c1ccccc1)C(C)C [AB15, Np-26-34-V-D-DMBA] | – | – | – | – | – | – | – | 133,705 M-1s-1 | – | –
14 | Cc1ccc(C[C@H](NC(=O)[C@H](CC(=O)O)NC(=O)Cc2ccc(O)c([N+](=O)[O-])c2)C(=O)NC2(C(=O)N[C@@H](CC(=O)O)C(=O)COC(=O)c3c(C)cccc3C)CC2)cc1 [AB30, Np-D-30-11-D-DMBA] | – | – | – | – | – | – | – | 448,179 M-1s-1 | – | –

Reference: patent US20100068150A1, “Selective Caspase Inhibitors” (The Board of Trustees of the Leland Stanford Junior …, priority 2006, published 2010)
